Source: PMC11345829, “Discovery of Potent Isoquinolinequinone N-Oxides to Overcome Cancer Multidrug Resistance” (Journal of Medicinal Chemistry, 2024)

How the values were obtained:
NCI-H322 = experiment: SRB cell growth inhibition assay; assay type: cell-based; details: Homo sapiens, 48 h, NSCLC, read-out: GI50 ± SEM NCI-H322
Protocol: (§1) Two pairs of drug-sensitive and multidrug-resistant (MDR) cell lines from human nonsmall cell lung cancer (NSCLC), NCI-H460 and NCI-H460/R, and colorectal cancer, DLD1 and DLD1-TxR, kindly provided by Dr M. Pešić (Belgrade, Serbia), were used to evaluate the growth inhibition potential of the compounds 1, 2, 3, 4, 5, 20, 23, 24, an 25.[76],[77] Additionally, growth inhibition assays were performed with compound 25 on two other NSCLC cell lines, A549 and NCI-H322, obtained from the American Type Culture Collection (ATCC) and the European Collection of Authenticated Cell Cultures, respectively. The A549 cell line was maintained in Dulbecco’s Modified Eagle Medium (DMEM) supplemented with 4.5 g/L Glucose with UltraGlutamine with sodium pyruvate (Lonza, Basel Stücki, Switzerland), enriched with 10% fetal bovine serum (FBS; Biowest, Nuaillé, France). […]
(§2) Cells were seeded at a previously determined optimal cell concentration (5.0 × 10^4 cells/mL for NSCLC cells and the nontumorigenic MRC-5 cell line and 1.0 × 10^5 cells/mL for colorectal cancer cells) and incubated at 37 °C for 24 h. […] Absorbance was measured at 510 nm in a multiplate reader (Synergy Mx, Biotek Instruments Inc., Winooski, Vermont, USA) using the Gen5 software (Biotek Instruments Inc.).

A549 = experiment: SRB cell growth inhibition assay; assay type: cell-based; details: Homo sapiens, 48 h, NSCLC, read-out: GI50 ± SEM A549
Protocol: as §1, §2

## COC(=O)c1c2c(c[n+]([O-])c1C)C(=O)C=C(NCc1ccccc1)C2=O [Compound 25]
NCI-H322
  GI50: 450 ± 60 nM
A549
  GI50: 220 ± 20 nM
